Experimental findings from US4366149A, “Antitumor anthracycline glycosides, their preparation, intermediates therefor, and compositions and use thereof” (priority 1980, dated 1982) are described below.

In brackets after ≈: the same amount, converted by molar mass. Where two headings read alike, the source gives them in different places.

The subject of one data set is HeLa cells. The data set can be described thus: HeLa cells cloning efficiency in vitro. The format is cell-based. The settings on record: for IC50: read-out: ID50 (HeLa cells cloning efficiency); for cytotoxicity on HeLa cells cloning efficiency, in words: in vitro, compared with daunorubicin. As for the experimental part: Activity on HeLa cells cloning efficiency in vitro. Treatment for 24 hours

The subject of another data set is P388 ascitic leukemia. The data set can be described thus: Activity against P388 ascitic leukemia in mice. Format: in vivo. The settings on record: for activity against P388 leukemia, in words: preliminary test in mice. The text has this: Activity against P388 ascitic leukemia. Treatment i.p. on day one after tumour inoculation.
Where [1] appears, read: 2.9 mg/kg i.p. on day one after tumour inoculation.
Where [2] appears, read: 4.4 mg/kg i.p. on day one after tumour inoculation.
Where [3] appears, read: 6.6 mg/kg i.p. on day one after tumour inoculation.
[4] abbreviates: Homo sapiens, HeLa, 24 h, read-out: % of controls (HeLa cells cloning efficiency).
Where [5] appears, read: 6 mg/kg i.p. on day one after tumour inoculation.
The mark [6] stands for this setting: 9 mg/kg i.p. on day one after tumour inoculation.
Setting [7] is: 13.5 mg/kg i.p. on day one after tumour inoculation.
[8] abbreviates: 10 mg/kg i.p. on day one after tumour inoculation.
Where [9] appears, read: 20 mg/kg i.p. on day one after tumour inoculation.
[10] abbreviates: 40 mg/kg i.p. on day one after tumour inoculation.

Regarding `COc1cccc2c1C(=O)c1c(O)c3c(c(O)c1C2=O)C[C@@](O)(C(C)=O)C[C@@H]3O[C@H]1C[C@H](N)[C@H](O)[C@H](C)O1` [Daunorubicin, daunorubicin, reference compound], the activity at 0.0031 µg/mL with HeLa cells (Homo sapiens, HeLa, dose 3.1 ng/ml, treatment for 24 hours, data of 2 experiments, read-out: % of controls (HeLa cells cloning efficiency)) lay in the range of 88 to 98%. For the same compound, the activity at 0.0062 µg/mL in the data set with HeLa cells (Homo sapiens, HeLa, dose 6.2 ng/ml, treatment for 24 hours (daunorubicin: data of 2 experiments), read-out: % of controls (HeLa cells cloning efficiency)) was in the range of 73 to 87%. Also, the IC50 in the data set with HeLa cells (Homo sapiens, HeLa, treatment for 24 hours (daunorubicin: data of 2 experiments)) is 0.012 µg/mL (≈ 0.0227 µM). For the same compound, the T/C % in the data set on P388 ascitic leukemia (setting [1]) is listed as 181%; in the data set with P388 ascitic leukemia (setting [2]), 140%; in the data set with P388 ascitic leukemia (setting [3]), 118%. Moreover, the “Toxicity Deaths” value in the data set with P388 ascitic leukemia (setting [1]) is listed as 0/10; in the data set on P388 ascitic leukemia (setting [2]), 9/10; in the data set on P388 ascitic leukemia (setting [3]) it was 10/10.
For the compound `COc1cccc2c1C(=O)c1c(O)c3c(c(O)c1C2=O)C[C@@](O)(C(C)=O)C[C@@H]3O[C@H]1C[C@H](N)[C@H](N)[C@H](C)O1` [XOO-O132 (I-A), 4'-amino-4'-deoxy-daunorubicin], in the data set on HeLa cells (setting [4]), the activity at 0.0062 µg/mL was 98%, the activity at 0.025 µg/mL was found to be 70% and the activity at 0.1 µg/mL came to 0%. For the same compound, the IC50 in the data set on HeLa cells (Homo sapiens, HeLa, 24 h) amounted to 0.035 µg/mL (≈ 0.0665 µM). In addition, the “cytotoxicity on HeLa cells cloning efficiency, in words” value in the data set on HeLa cells is “less cytotxic than daunorubicin”. Besides, in the data set on P388 ascitic leukemia (setting [5]), the T/C % is 181% and the “Toxicity Deaths” value is reported as 0/10. In the data set with P388 ascitic leukemia (setting [6]), the T/C % is on record as 190% and the “Toxicity Deaths” value is listed as 0/10. For the same compound, in the data set with P388 ascitic leukemia (setting [7]), the T/C % stood at 222% and the “Toxicity Deaths” value is 0/10. In the data set with P388 ascitic leukemia (P388 leukemia in mice, 13.5 mg/kg), the “activity at the maximal dose tested, in words” value is “highly active”. The “toxicity, in words” value in the data set on P388 ascitic leukemia (P388 leukemia in mice, compared with daunorubicin) is “less toxic than daunorubicin”. Moreover, the “activity against P388 leukemia, in words” value in the data set with P388 ascitic leukemia (compared with daunorubicin) is given as “much more active daunorubicin”.
On to `COc1cccc2c1C(=O)c1c(O)c3c(c(O)c1C2=O)C[C@@](O)(C(C)=O)C[C@@H]3O[C@H]1C[C@H](N)[C@@H](NC(=O)C(F)(F)F)[C@H](C)O1` [XOO-O136 (I-B), 4'-deoxy-4'-epi-trifluoroacetamido-daunorubicin], for which, in the data set on HeLa cells (setting [4]), the activity at 0.1 µg/mL was 211%, the activity at 0.4 µg/mL came out at 21% and the activity at 1.6 µg/mL turned out to be 0%. In the data set with HeLa cells (Homo sapiens, HeLa, 24 h), the IC50 worked out at 0.18 µg/mL (≈ 0.289 µM). Besides, the “cytotoxicity on HeLa cells cloning efficiency, in words” value with HeLa cells is reported as “less cytotxic than daunorubicin”. Further, in the data set on P388 ascitic leukemia (setting [8]), the T/C % amounted to 145% and the “Toxicity Deaths” value was 0/10. In the data set with P388 ascitic leukemia (setting [9]), the T/C % is listed as 154% and the “Toxicity Deaths” value is on record as 0/10. Further, in the data set on P388 ascitic leukemia (setting [10]), the T/C % turned out to be 163% and the “Toxicity Deaths” value is listed as 2/10. In addition, the “activity against P388 leukemia, in words” value in the data set on P388 ascitic leukemia (compared with daunorubicin) is reported as “much more active daunorubicin”.
